{"source": "patent US20260240999A1", "about": "“METHODS FOR EX VIVO ENRICHMENT AND EXPANSION OF TUMOR REACTIVE T CELLS AND RELATED COMPOSITIONS THEREOF” (H. LEE MOFFITT CANCER CENTER AND RESEARCH INSTITUTE, INC., priority 2022, published 2026)", "key": {"[1]": {"tested_on": "previously expanded human T cells from three healthy donors", "experiment": "Cytokines, modulators and agonist antibodies with IL-2 on T cell number and memory phenotype", "assay_type": "cell-based", "protocol": "PBMC from three healthy donors were activated, expanded, and cryopreserved as described in Example 11. […] As previously described, stimulation of the healthy donor T cells prior to cryopreservation were carried out with anti-CD3 (OKT3) stimulation in order to mimic conditions present in the tumor microenvironment (TME).\nCells were next seeded into gas permeable 100M culture vessels and expanded for 7-14 days to achieve a large bank of T cells, and cryopreserved.\nCells were maintained in culture for 6 days, with a 50% medium exchange occurring at 3 days post culture initiation.\nAt the end of the culture period for all culture conditions, cells were assessed for cell count and sub-phenotypes of naïve and central memory T cells by flow cytometry by staining with CD45RA and CCR7 (naïve, CD45RA+ CCR7+; “central” memory, CD45RA-CCR7+)."}, "[2]": {"tested_on": "previously expanded human T cells from three healthy donors", "experiment": "Effect of T cell adjuvants on T cell viability (total viable CD3+ cell count)", "assay_type": "cell-based", "conditions": "for viable cell counts: vs DMSO treatment control, irrespective of activation status, 6 days", "protocol": "Cells were expanded from PBMC derived from Ficoll gradient separation from three healthy donor's apheresis material. […] Because the studies were carried out in healthy donors, stimulation of the T cells was carried out with anti-CD3 (OKT3) stimulation in order to mimic conditions present in the tumor microenvironment (TME).\nCells were next seeded into gas permeable 100M culture vessels and expanded for 7-14 days to achieve a large bank of T cells, and cryopreserved. […] Half of wells were additionally supplemented with 50 ng/mL OKT3, a human anti-CD3 monoclonal antibody. In total, 15 test adjuvant agents were tested for their impact on cell viability in the presence and absence of anti-CD3 activation (see Table E3). Cells were cultured for 6 days total, including a 50% medium exchange on culture day 3, and monitored for total viable CD3+ cell count."}, "[3]": {"tested_on": "PBMC from three healthy donors", "experiment": "T cell expansion with Fas ligand or caspase inhibition, anti-CD3 stimulation", "assay_type": "cell-based, human", "conditions": "OKT3 activation", "protocol": "(§1) Cells were then seeded into a 24-well gas permeable cell culture plate at a density of 2.14×10^5 cells/mL (7.5×10^5 cells/cm^2). Cells were activated for 48 hours using 50 ng/ml OKT3, a human anti-CD3 monoclonal antibody, and were additionally treated with agents as described below.\nCulture wells were assigned to one of five treatment groups, as follows: (1) a no inhibitor culture control which contained only cellular media as described with no additional apoptotic modulator; (2) 2 μM of the pan-caspase inhibitor Z-VAD-FMK added to the media only on culture day 0 (transient); (3) 2 μM of the pan-caspase inhibitor Z-VAD-FMK added on culture day 0 and additionally replenished at the same concentration with each media exchange (continuous); (4). 500 ng/ml of Fas ligand (FasL) blocking antibody NOK-1 (BioLegend) added to the culture media only on day 0 (transient); or (5) 500 ng/ml of Fas ligand (FasL) blocking antibody NOK-1 (BioLegend) added to the culture media […] replenished each media exchange (continuous inhibition).\nCultures were maintained for at least 13 days with a 50% media exchange every other day beginning on culture day 2. Cell counts and viability were monitored every other day. […]"}, "[4]": {"tested_on": "CRC tumor fragment and SCS cultures", "experiment": "Caspase inhibition in tumor processing", "assay_type": "cell-based, human", "protocol": "Half of cultures contained media additionally supplemented with 2 μM of pan-caspase inhibitor Z-VAD-FMK which was replenished at each media exchange. Cultures were incubated at about 37° C. for a minimum of 18 days with a 50% medium exchange occurring every 2-3 days following culture day 5. Cell counts were performed on day 5 and at each medium exchange using the NC-200 Automated Cell Counter (ChemoMetec)."}, "[5]": {"tested_on": "PBMC from two healthy donors", "experiment": "T cell expansion with Fas ligand or caspase inhibition, anti-CD3/anti-CD28 stimulation", "assay_type": "cell-based, human", "conditions": "continuous anti-CD3/anti-CD28 activation", "protocol": "Cells were then seeded into a 24-well gas permeable cell culture plate at a density of 1.5×10^5 cells/mL (5.0×10^5 cells/cm^2).\nCulture wells were assigned to one of two treatment groups, transient or continuous activation. For transient activation, anti-CD3/anti-CD28 paramagnetic beads (Dyanbeads™) were added to the culture media at a ratio of 1 bead per cell starting on culture day 0, and then were removed during media exchange on day 2. For continuous activation, anti-CD3/anti-CD28 paramagnetic beads (Dyanbeads™) were added to the culture media at a ratio of 1 bead per cell starting on culture day 0, and then added again on Day 4, and again on Day 6 at a ratio of 1 bead per cell. The anti-CD3/anti-CD28 paramagnetic beads were not removed on Day 2, 4 or 6.\nFor both the continuous and transient activation, culture wells were assigned to one of five treatment groups as described above for 10 conditions total per donor.\nCell counts and viability were monitored every other day. When cells reached 3×10^6 cells/ml, 1.5×10^6 cells were sub-cultured into a new well of a 24-well gas permeable culture plate with 7 mL final volume of medium and the culture continued as described above."}, "[6]": {"tested_on": "T-cells from three healthy donors", "experiment": "Post-stimulation CD4+ and CD8+ activation markers by flow cytometry", "assay_type": "cell-based, human", "conditions": "50 ng/ml OKT3 vs no OKT3, 48 hours, CD38, CD39, CD134, CD137, CD69, CD90", "protocol": "Specific markers of activation on the CD4+ and CD8+ cell populations were measured using flow cytometry over a time course of 3-48 hours. Specifically, the following markers were assessed: CD38 and CD39 (FIG. 12A and FIG. 13A), CD134 and CD137 (FIG. 12B and FIG. 13B), and CD69 and CD90 (FIG. 12C and FIG. 13C)."}, "[7]": {"tested_on": "cells processed from melanoma tumor fragments", "experiment": "Anti-CD3 stimulation on expansion of tumor-derived cells", "assay_type": "cell-based, human", "conditions": "presence or absence of 50 ng/mL OKT3; 14-31 days", "protocol": "Cells processed from melanoma tumor fragments as described in Examples 1 and 2, were cultured in the presence or absence of 50 ng/mL OKT3, a human anti-CD3 monoclonal antibody. Cell cultures were carried out to between 14 and 31 days, such as between 14 and 21 days, in either a conventional 6-well plate or a gas permeable culture plate with RPMI or OpTmizer media. […] About 50% of cellular media was exchanged every other day beginning on the 5th day of culture as described previously. Cells were then counted using the NC-200 Automated Cell Counter (Chemometec)."}, "[8]": {"tested_on": "PBMC from two healthy donors", "experiment": "Checkpoint modulators and costimulatory agonist antibodies on T cell phenotype", "assay_type": "cell-based, human", "protocol": "as §1, with “5.0×10^5 cells/cm^2.” for “2.14×10^5 cells/mL (7.5×10^5 cells/cm^2).”, “below. Following 48 hours in culture, cells were analyzed for phenotype.” for “below.”\nCells were divided into 6 treatment groups, as follows: Ipilimumab (anti-CTLA4), Pembrolizumab (anti-PD1), Tavolixizumab (anti-TNFRSF4), Urelumab (anti-CD137), and Varlilumab (anti-CD27), as well as a no added agent control. For all test groups, cells in each treatment group were cultured in the presence of the monoclonal antibodies at 0.5, 1, 10, or 20 μg/mL.\nNone of the tested antibodies appeared to affect the memory differentiation state of the T cells. T cell phenotype was assessed for CD4+ and CD8+ cells independently via flow cytometry for markers of activation OX40, 41BB, CD107a, and PD1. Results are shown in FIG. 38 (CD3+), FIG. 39 (CD4+) and FIG. 40 (CD8+)."}, "[9]": {"conditions": "cytokine plus 300 IU/mL IL-2 vs IL-2 alone"}, "[10]": {"conditions": "on CD3+, CD4+ and CD8+ T cells, higher concentrations"}}, "note": "“Also recorded” adds a separate entry of the source. Residues, ends and D or L forms follow the SMILES beside them. *: point of attachment. Cbz = O=C(OCc1ccccc1)*; CH2F = FC*"}
{"molecule": "COC(=O)C[C@H](NC(=O)[C@H](C)NC(=O)[C@@H](NC(=O)OCc1ccccc1)C(C)C)C(=O)CF", "note": "[Z-VAD-FMK, carbobenzoxy-valyl-alanyl-aspartyl-[O-methyl]-fluoromethylketone] (Cbz-Val-Ala-Asp(OMe)-CH2F)", "values": [{"measurement": "number of CD3+ cells/mL on Day 6", "setting": "[1]; concentrations higher than 0.2 μg/mL, vs IL-2 alone", "value": "substantially increased the number of CD3+ cells/mL on Day 6"}, {"measurement": "percent of naïve and central memory T cells", "setting": "[1]; vs cultures expanded just with IL-2", "value": "had no effect on the percent of naïve and central memory T cells"}, {"measurement": "viable cell counts", "setting": "[2]", "value": "consistently higher viable cell counts than the DMSO treatment control"}, {"measurement": "cell growth (total cell number)", "setting": "[3]; continuous inhibition (replenished each media exchange)", "value": "showed the greatest cell growth across donors"}, {"measurement": "cell growth (total cell number)", "setting": "[3]; transient treatment (day 0 only)", "value": "grew similarly"}, {"measurement": "cell viability", "setting": "[4]; SCS culture, 2 μM", "value": "Cell viability was similarly high"}, {"measurement": "outgrowth of T cells", "setting": "[4]; SCS culture, 2 μM", "value": "outgrowth of T cells was not observed for the SCS conditions"}, {"measurement": "cell viability", "setting": "[4]; tumor fragment-derived culture, 2 μM", "value": "cell viability for this condition was also high"}, {"measurement": "outgrowth of cells (fold expansion, total viable cells)", "setting": "[4]; tumor fragment-derived culture, 2 μM replenished at each media exchange", "value": "outgrowth of cells was superior in the tumor fragment-derived condition containing the pan-caspase inhibitor"}, {"measurement": "total viable cell number and viability", "setting": "[5]; inhibitor continuous, listed as caspase inhibitor", "value": "outperformed the other conditions; also recorded: outperforming the transient condition"}, {"measurement": "total viable cell number and viability", "setting": "[5]; inhibitor transient", "value": "outperformed the other conditions"}]}
{"molecule": "IL-15: recombinant cytokine", "values": [{"measurement": "percent naïve and central memory T cells at Day 6", "setting": "[1]; cytokine plus 300 IU/mL IL-2", "value": "measured increase in the percent naïve and central memory T cells"}, {"measurement": "CD3+ cells/mL on Day 6", "setting": "[1]; [9]", "value": "increase in CD3+ cells/mL on Day 6"}, {"measurement": "dose response of cell number", "setting": "[2]; 62.5 IU/ml-1000 IU/ml", "value": "dose dependent response, wherein cell number increased with increasing concentration"}]}
{"molecule": "IL-21: recombinant cytokine", "values": [{"measurement": "percent naïve and central memory T cells at Day 6", "setting": "[1]; cytokine plus 300 IU/mL IL-2", "value": "measured increase in the percent naïve and central memory T cells"}, {"measurement": "CD3+ cells/mL on Day 6", "setting": "[1]; [9]", "value": "increase in CD3+ cells/mL on Day 6"}]}
{"molecule": "OKT3: a human anti-CD3 monoclonal antibody", "values": [{"measurement": "upregulation of activation markers on CD8+ T cells", "setting": "[6]; highest for CD38, CD134, CD69", "value": "all assessed markers were upregulated to some extent"}, {"measurement": "upregulation of activation markers on CD4+ T cells", "setting": "[6]; highest for CD38, CD137, CD69", "value": "all assessed markers were upregulated to some extent"}, {"measurement": "total cell number and fold expansion", "setting": "[7]", "value": "supported T cell expansion, but did not substantially impact total cell number; also recorded: observed to be largely similar"}]}
{"molecule": "Oxelumab: anti-OX40L antibody", "values": [{"measurement": "percent naïve and central memory T cells at Day 6", "setting": "[1]; antibody plus IL-2 vs IL-2 alone, MK-1248 at highest concentration tested", "value": "little effect on the percent of naïve and central memory T cells"}, {"measurement": "CD3+ cells/mL on Day 6", "setting": "[1]; highest concentration tested, 50 μg/mL, vs IL-2 alone", "value": "increase in CD3+ cells/mL on Day 6"}, {"measurement": "viable cell counts", "setting": "[2]", "value": "consistently higher viable cell counts than the DMSO treatment control"}]}
{"molecule": "Pembrolizumab: anti-PD1 antibody", "values": [{"measurement": "PD1 expression", "setting": "[8]; on CD4 T cells", "value": "decreased PD1 expression"}, {"measurement": "viable cell counts", "setting": "[2]", "value": "consistently higher viable cell counts than the DMSO treatment control"}]}
{"molecule": "Urelumab: an agonist CD137 receptor antibody", "values": [{"measurement": "41BB expression", "setting": "[8]; on CD4 T cells and CD8+ T cells", "value": "promoted 41BB expression"}]}
{"molecule": "Varlilumab: an agonist anti-CD27 antibody", "values": [{"measurement": "41BB expression", "setting": "[8]; [10]", "value": "promoted 41BB and CD107a expression"}, {"measurement": "CD107a expression", "setting": "[8]; [10]", "value": "promoted 41BB and CD107a expression"}]}
